molecular target: cGMP-specific 3',5'-cyclic phosphodiesterase (Homo sapiens, UniProt O76074); experiment: PDE5 Inhibition Assay
Procedure: Test compounds were supplied as liquid solutions of 10 mM concentration in DMSO. Sildenafil, used as a standard was dissolved in DMSO. […] 0.1 ng of enzyme was used per reaction, and the substrate was 100 nM FAM-cGMP.Assay conditions: A series of dilutions of the test compounds were prepared with 10% DMSO in assay buffer and 5 μl of the dilution was added to a 50 μl reaction so that the final concentration of DMSO is 1% in all of reactions. The enzymatic reactions were conducted at room temperature for 60 minutes in a 50 μl mixture containing PDE assay buffer, 100 nM FAM-cAMP or 100 nM FAM-cGMP, a PDE enzyme, and the test compound. After the enzymatic reaction, 100 μl of a binding solution (1:100 dilution of the binding agent with the binding agent diluent) was added to each reaction and the reaction was performed at room temperature for 60 minutes. […] Fluorescence intensity is converted to fluorescence polarization using the Tecan Magellan6 software. The fluorescence polarization data were analyzed using the computer software, Graphpad Prism. The fluorescence polarization (FPt) in absence of the compound in each data set was defined as 100% activity. In the absence of PDE and the compound, the value of fluorescent polarization (FPb) in each data set was defined as 0% activity. The percent activity in the presence of the compound was calculated according to the following equation: % activity=(FP−FPb)/(FPt−FPb)×100%, where FP=the fluorescence polarization in the presence of the compound.

Row | IC50 [nM] | SMILES
1 | 425 | COc1cc(Nc2c3c(nc4ccc(C#N)cc24)CCN(C(C)=O)C3)ccc1Cl [US10899756, Compound T]
2 | 593 | COc1ccc(Nc2c3c(nc4ccc(C#N)cc24)CCN(C(C)=O)C3)cc1Cl [US10899756, Compound S]
3 | 26.9 | COc1ccc(C(C)Nc2c3c(nc4ccc(C#N)cc24)CCN(C(C)=O)C3)cc1Cl (centres undefined) [US10899756, Compound V]

Row | SMILES | IC50 [nM]
4 | COc1ccc(CCNc2c3c(nc4ccc(C#N)cc24)CCN(C(C)=O)C3)cc1Cl [US10899756, Compound W] | 10.6
